# Source: US6365609B1, “Substituted 3,3-diamino-2-propenenitriles, their preparation and use” (Novo Nordisk A/S, priority 1998, dated 2002)
# Legend:
# [1] = biological target: KATP-channels on pancreatic beta-cells (Homo sapiens, UniProt Q09428); conditions: by activation of KATP-channels; cited from earlier work
# [2] = tested on: obese zucker rats; conditions: cited from earlier work
# [3] = tested on: BB-rats; conditions: cited from earlier work
# Chain of KATP-channels on pancreatic beta-cells (Q09428 whole entry): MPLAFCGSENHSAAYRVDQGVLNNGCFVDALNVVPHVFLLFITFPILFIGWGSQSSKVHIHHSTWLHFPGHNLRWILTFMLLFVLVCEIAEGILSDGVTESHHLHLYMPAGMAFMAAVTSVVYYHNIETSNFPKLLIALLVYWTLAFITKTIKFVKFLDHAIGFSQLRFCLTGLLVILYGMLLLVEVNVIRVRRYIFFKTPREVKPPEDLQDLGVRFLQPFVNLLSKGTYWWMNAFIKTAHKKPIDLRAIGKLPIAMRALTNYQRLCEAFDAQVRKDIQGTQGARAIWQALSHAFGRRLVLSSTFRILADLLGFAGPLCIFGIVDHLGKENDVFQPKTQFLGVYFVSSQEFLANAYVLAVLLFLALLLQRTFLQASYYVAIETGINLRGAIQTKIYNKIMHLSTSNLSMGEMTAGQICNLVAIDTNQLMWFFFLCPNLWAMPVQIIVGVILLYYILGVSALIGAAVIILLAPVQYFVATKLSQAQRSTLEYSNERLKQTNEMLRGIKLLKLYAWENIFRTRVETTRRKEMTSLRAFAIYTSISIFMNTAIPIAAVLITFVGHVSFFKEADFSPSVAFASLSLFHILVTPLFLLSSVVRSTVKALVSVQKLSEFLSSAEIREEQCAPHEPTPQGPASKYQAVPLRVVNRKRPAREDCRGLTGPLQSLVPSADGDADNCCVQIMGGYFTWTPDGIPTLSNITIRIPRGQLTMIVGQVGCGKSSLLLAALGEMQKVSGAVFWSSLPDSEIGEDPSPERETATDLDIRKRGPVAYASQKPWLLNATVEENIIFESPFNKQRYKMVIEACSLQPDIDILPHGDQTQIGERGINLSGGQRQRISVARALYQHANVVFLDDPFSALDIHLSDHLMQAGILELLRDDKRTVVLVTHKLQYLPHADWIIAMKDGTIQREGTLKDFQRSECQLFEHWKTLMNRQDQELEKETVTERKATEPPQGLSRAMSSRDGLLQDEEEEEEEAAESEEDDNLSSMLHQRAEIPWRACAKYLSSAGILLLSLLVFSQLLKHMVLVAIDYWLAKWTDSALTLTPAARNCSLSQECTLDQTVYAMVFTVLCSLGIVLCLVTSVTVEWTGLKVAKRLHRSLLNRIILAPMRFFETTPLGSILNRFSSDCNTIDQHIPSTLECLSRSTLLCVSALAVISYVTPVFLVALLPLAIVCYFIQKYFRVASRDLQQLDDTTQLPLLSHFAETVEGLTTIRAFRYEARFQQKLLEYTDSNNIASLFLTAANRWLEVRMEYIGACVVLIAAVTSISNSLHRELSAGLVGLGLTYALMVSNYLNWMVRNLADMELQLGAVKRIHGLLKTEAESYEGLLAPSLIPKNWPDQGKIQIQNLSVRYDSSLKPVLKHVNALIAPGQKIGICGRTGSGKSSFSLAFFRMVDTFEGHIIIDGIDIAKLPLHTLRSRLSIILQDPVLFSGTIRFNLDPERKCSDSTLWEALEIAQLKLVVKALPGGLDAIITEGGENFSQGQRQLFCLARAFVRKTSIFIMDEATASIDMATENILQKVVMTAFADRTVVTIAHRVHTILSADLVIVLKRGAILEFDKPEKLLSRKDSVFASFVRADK
# Chain of KATP-channels on pancreatic beta-cells (Q14654 whole entry partner): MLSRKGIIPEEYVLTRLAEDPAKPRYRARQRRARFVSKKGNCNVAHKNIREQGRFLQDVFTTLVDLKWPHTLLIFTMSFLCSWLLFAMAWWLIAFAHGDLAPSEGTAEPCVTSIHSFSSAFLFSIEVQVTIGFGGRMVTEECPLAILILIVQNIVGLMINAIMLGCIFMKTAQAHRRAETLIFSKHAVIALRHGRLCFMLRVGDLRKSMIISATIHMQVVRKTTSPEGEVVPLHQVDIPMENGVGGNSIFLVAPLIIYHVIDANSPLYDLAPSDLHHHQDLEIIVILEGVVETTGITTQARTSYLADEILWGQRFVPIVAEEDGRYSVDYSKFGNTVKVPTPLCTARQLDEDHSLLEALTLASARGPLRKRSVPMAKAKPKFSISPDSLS
Compound,melting point [°C],other results
"CC(NC(Nc1cc(C(F)(F)F)cc(C(F)(F)F)c1)=C(C#N)S(=O)(=O)c1ccc(Cl)cc1)C(C)(C)C (centres unmarked) [Example 1, 3-[3,5-bis(trifluoromethyl)phenylamino]-2-(4-chlorophenylsulfonyl)-3-(1,2,2-trimethylpropylamino)-2-propenenitrile]",155.5 to 158.5,–
"N#CC(=C(Nc1cc(C(F)(F)F)cc(C(F)(F)F)c1)NC1CCCC1)S(=O)(=O)c1ccc(Cl)cc1 [Example 2, 3-[3,5-Bis(trifluoromethyl)phenylamino]-2-(4-chlorophenylsulfonyl)-3-cyclopentylamino2-propenenitrile]",199 to 200,–
"CC(NC(Nc1cc(Cl)cc(Cl)c1)=C(C#N)S(=O)(=O)c1ccc(Cl)cc1)C(C)(C)C (centres unmarked) [Example 7, 2-(4-Chlorophenylsulfonyl)-3-(3,5-dichlorophenylamino)-3-(1,2,2-trimethylpropylamino)-2-propenenitrile]",163 to 169,–
"CC(NC(Nc1cc(C(F)(F)F)cc(C(F)(F)F)c1)=C(C#N)S(C)(=O)=O)C(C)(C)C (centres unmarked) [Example 9, 3-(3,5-Bis(trifluoromethyl)phenylamino)-2-methylsulfonyl-3-(1,2,2-trimethylpropylamino)-propenenitrile]",184.5 to 188.5,–
"COc1cc(NC(NC(C)C(C)(C)C)=C(C#N)S(=O)(=O)c2ccc(Cl)cc2)cc(OC)c1 (centres unmarked) [Example 10, 2-(4-Chlorophenylsulfonyl)-3-(3,5-dimethoxyphenylamino)-3-(1,2,2-trimethylpropylamino)-2-propenenitrile]",177.5 to 179,–
"CCC(C)(C)NC(Nc1cc(C(F)(F)F)cc(C(F)(F)F)c1)=C(C#N)S(=O)(=O)c1ccc(Cl)cc1 [Example 17, 3-[3,5-Bis(trifluoromethyl)phenylamino]-2-(4-chlorophenylsulfonyl)-3-(1,1-dimethylpropylamino)-2-propenenitrile]",205 to 207,–
"C[C@@H](NC(Nc1cc(C(F)(F)F)cc(C(F)(F)F)c1)=C(C#N)S(C)(=O)=O)C(C)(C)C [Example 21, (R)-3-[3,5-bis(trifluoromethyl)phenylamino]-2-methanesulfonyl-3-(1,2,2-trimethylpropylamino)-2-propenenitrile]",181 to 181.5,–
"C[C@H](NC(Nc1cc(C(F)(F)F)cc(C(F)(F)F)c1)=C(C#N)S(C)(=O)=O)C(C)(C)C [Example 22, (S)-3-[3,5-bis(trifluoromethyl)phenylamino]-2-methanesulfonyl-3-(1,2,2-trimethylpropylamino)-2-propenenitrile]",180.5 to 181.5,–
"CCC(C)(C)NC(Nc1cc(OC)cc(OC)c1)=C(C#N)S(=O)(=O)c1ccc(Cl)cc1 [Example 23, 2-(4-Chlorophenylsulfonyl)-3-(3,5-dimethoxyphenylamino)-3-(1,1-dimethylpropylamino)-2-propenenitrile]",189 to 190,–
"CC(NC(Nc1cc(F)cc(C(F)(F)F)c1)=C(C#N)S(C)(=O)=O)C(C)(C)C (centres unmarked) [Example 33, 3-(3-Fluoro-5trifluoromethyl-phenylamino)-2-methylsulfonyl-3-(1,2,2-trimethylpropylamino)-propenenitrile]",183 to 185,–
"CC(NC(Nc1ccc(Cl)cc1)=C(C#N)S(C)(=O)=O)C(C)(C)C (centres unmarked) [Example 34, 3-(4-Chlorophenylamino)-2-methylsulfonyl-3-(1,2,2-trimethylpropylamino)-acrylonitrile]",160.5 to 161.5,–
"CCC(C)(C)NC(Nc1ccc2c(c1)OCO2)=C(C#N)C(=O)C(C)(C)C [Example 36, 3-(Benzo[1,3]dioxol-5-ylamino)-2-(2,2-dimethyl-propionyl)-3-(1,1-dimethyl-propylamino)-propenenitrile]",161 to 165,–
"CC1=Nc2ccc(Cl)cc2S(=O)(=O)N1 [diazoxide, 7-chloro-3-methyl-2H-1,2,4-benzothiadiazine 1,1-dioxide]",–,insulin release [1]: inhibit insulin release; glucose tolerance [2]: improve glucose tolerance; insulin receptor binding [2]: increase insulin receptor binding; insulin secretion [2]: decrease insulin secretion; weight gain [2]: decrease weight gain; onset of diabetes [3]: delay the onset of diabetes

# Continued, in another order:
melting point [°C],Compound,other results
197 to 198.5,"CC(C)NC(Nc1cc(C(F)(F)F)cc(C(F)(F)F)c1)=C(C#N)S(=O)(=O)c1ccc(Cl)cc1 [Example 3, 3-[3,5-Bis(trifluoromethyl)phenylamino]-2-(4-chlorophenylsulfonyl)-3-isopropylamino-2-propenenitrile]",–
190.5 to 193,"N#CC(=C(Nc1cc(C(F)(F)F)cc(C(F)(F)F)c1)NC1CCC1)S(=O)(=O)c1ccc(Cl)cc1 [Example 4, 3-[3,5-Bis(trifluoromethyl)phenylamino]-2-(4-chlorophenylsulfonyl)-3-cyclobutylamino-2-propenenitrile]",–
196.5 to 198.5,"CCCNC(Nc1cc(C(F)(F)F)cc(C(F)(F)F)c1)=C(C#N)S(=O)(=O)c1ccc(Cl)cc1 [Example 5, 3-[3,5-Bis(trifluoromethyl)phenylamino]-2-(4-chlorophenylsulfonyl)-3-propylamino2-propenenitrile]",–
151.5 to 154,"CC(NC(=C(C#N)S(=O)(=O)c1ccc(Cl)cc1)N(C)c1cc(C(F)(F)F)cc(C(F)(F)F)c1)C(C)(C)C (centres unmarked) [Example 11, 3-[N-(3,5-bis(trifluoromethyl)phenyl)-N-methylamino]-2-(4-chlorophenylsulfonyl)-3-(1,2,2-trimethylpropylamino)-2-propenenitrile]",–
164 to 165,"C[C@@H](NC(Nc1cc(C(F)(F)F)cc(C(F)(F)F)c1)=C(C#N)S(=O)(=O)c1ccc(Cl)cc1)C(C)(C)C [Example 19, (R)-3-[3,5-bis(trifluoromethyl)phenylamino]-2-(4-chlorophenylsulfonyl)-3-(1,2,2-trimethylpropylamino)-2-propenenitrile]",–
188.5 to 191,"CC(C)NC(Nc1cc(C(F)(F)F)cc(C(F)(F)F)c1)=C(C#N)S(C)(=O)=O [Example 20, 3-(3,5-Bis(trifluoromethyl)phenylamino)-3-isopropylamino-2-methylsulfonyl-propenenitrile]",–
163.5 to 164.5,"COc1cc(NC(NC2CCC2)=C(C#N)S(=O)(=O)c2ccc(Cl)cc2)cc(OC)c1 [Example 24, 2-(4-Chlorophenylsulfonyl)-3-(3,5-dimethoxyphenylamino)3cyclobutylamino-2-propenenitrile]",–
169 to 170,"CCC(C)(C)NC(Nc1ccc2c(c1)OCO2)=C(C#N)S(=O)(=O)c1ccc(Cl)cc1 [Example 27, 3-(Benzo[1,3]dioxol-5-ylamino)-3-(1,1-dimethyl-propylamino)-2-(4-chloro-phenylsulfonyl)-propenenitrile]",–
189.5,"N#CC(=C(Nc1ccc2c(c1)OCO2)NC1CCC1)S(=O)(=O)c1ccc(Cl)cc1 [Example 28, 3-(Benzo[1,3]dioxol-5-ylamino)-3-cyclobutylamino-2-(4-chloro-phenylsulfonyl)-propenenitrile]",–
150 to 152,"CCC(C)NC(Nc1cc(Cl)cc(Cl)c1)=C(C#N)S(=O)(=O)c1ccc(Cl)cc1 (centres unmarked) [Example 31, 3-sec-Butylamino-2-(4-chlorophenylsulfonyl)-3-(3,5-dichlorophenylamino)-2-propenenitrile]",–
112 to 114,"CCC(C)(C)NC(Nc1ccc2ncsc2c1)=C(C#N)S(C)(=O)=O [Example 35, 3-(Benzothiazol-6-ylamino)-3-(1,1-dimethyl-propylamino)-2-methylsulfonyl-propenenitrile]",–
